Patent publication EP4624466A1, “DEGRADER FOR DECOMPOSING CMET PROTEIN, AND PHARMACEUTICAL COMPOSITION COMPRISING SAME” (Innocure Therapeutics, Inc., priority 2022, dated 2024)
Where two headings read alike, the source gives them in different places.

Tests used:
c-MET [1] = biological target: T1, c-MET (Homo sapiens, UniProt P08581); assay: c-MET protein degradation (Simple Western), SNU-638; assay type: cell-based; parameters: assess the resolution of the compound of the present invention for c-MET expressed in cells; endogenous in cells; host or cells: SNU638 (human gastric cancer); details: c-MET overexpressing gastric cancer cell line SNU-638, treated 24 hours
Description: (§1) In order to assess the resolution of the compound of the present invention for c-MET expressed in cells, cells were dispensed in a 12-well plate at a concentration of 2 × 10^5 cells/well, and then gastric cancer cell lines were treated with samples for 24 hours and lung cancer cell lines were treated for 48 hours. Cell lysates were collected using a scraper on ice, centrifuged at 4°C15,000 rpm for 30 min to obtain a protein-containing supernatant. Protein expression was then measured using the Simple Western Automated Western Blot System Abby instrument using 3 µg of protein for each sample. SDS and heat-induced denaturation proteins were separated by molecular weight, attached to capillary, reacted with anti-c-MET or anti-GAPDH antibodies, which are primary antibodies, and then reacted with HRP-conjugated secondary antibodies, and analyzed the protein expression signal with compass software. Protein expression was normalized based on the expression value of GAPDH, and protein development in each sample was measured as a percentage (%) based on 100% of samples treated with 0.1% DMSO carriers, and DC50 (concentration of a compound where 50% protein inhibition is achieved) was calculated from the change in protein expression amount due to compound treatment.

c-MET [2] = biological target: T1, c-MET; assay: c-MET protein degradation (Simple Western), MKN-45; assay type: cell-based; parameters: assess the resolution of the compound of the present invention for c-MET expressed in cells; endogenous in cells; host or cells: MKN45 (human gastric cancer); details: c-MET overexpressing gastric cancer cell line MKN-45, treated 24 hours; Table 2
Summary of the method: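 Cells treated 24 h (gastric lines) or 48 h (lung lines); 3 µg lysate protein analysed by capillary Simple Western with anti-c-MET, normalized to GAPDH and expressed as % of 0.1% DMSO; DC50 from expression change.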

SNU-638 = assay: Cell viability / antiproliferative assay (WST-8), SNU-638; assay type: cell-based, human; details: read-out: SNU-638 IC50
Description: (§2) c-MET overexpressing human gastric cancer cell lines [MKN45] and [SNU638] were cultured in RPMI medium with 10% fetal bovine serum, penicillin (100U/ml), and streptomycin (100mg/ml), and c-MET exon 14 skipping mutant human gastric cancer cell lines [Hs746T] were cultured in DMEM media. The c-MET overexpressing human lung cancer cell line EBC-1 was cultured in MEM media with the addition of 10% fetal bovine serum, penicillin (100U/ml), and streptomycin (100mg/ml). […] The compound synthesized in accordance with the present invention was prepared with a raw material solution of 10 mM dissolved in DMSO (dimethyl sulfoxide), and was sequentially diluted and processed.
(§3) In order to observe the inhibitory activity on cell growth, cells were dispensed in a 96-well plate at a concentration of 5,000 cells/well, and then treated with the compound prepared at various concentrations for 72 hours. The viability of the cells was calculated using GraphicPad Prism 8.0 software by adding 10 ml per well of WST-8 (water soluble tetrazolium salt) sample, which reacts with dehydrogenase present in the electron transport system of mitochondria to produce formazon, incubated for 2 hours, and measured absorbance at 450 nm.

MKN-45 = assay: Cell viability / antiproliferative assay (WST-8), MKN-45; details: Homo sapiens, MKN-45, 72 h, read-out: MKN-45 IC50;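 note: MKN-45 is a human gastric cancer line overexpressing c-MET, growth inhibition read as WST-8 formazan absorbance at 450 nm after 2 h dye incubation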
Hs746T = assay: Cell viability / antiproliferative assay (WST-8), Hs746T; assay type: cell-based; details: Homo sapiens, Hs746T cells, 72 hours, Table 2
Description: as §2, §3

c-MET [3] = biological target: T1, c-MET; assay: c-MET protein degradation (Simple Western), EBC-1; assay type: cell-based; parameters: assess the resolution of the compound of the present invention for c-MET expressed in cells; endogenous in cells; host or cells: EBC-1 (human lung cancer); details: c-MET overexpressing lung cancer cell line EBC-1, treated 48 hours; Table 2
Description: as §1

EBC-1 = assay: Cell viability / antiproliferative assay (WST-8), EBC-1; assay type: cell-based, human; details: read-out: EBC-1 IC50
Description: as §2, §3

[4] = Homo sapiens, EBC-1 cells, 72 hours, WST-8, Table 2
[5] = Homo sapiens, SNU-638 cells, 72 hours, WST-8, Table 2

T1 sequence (P08581 25-1390): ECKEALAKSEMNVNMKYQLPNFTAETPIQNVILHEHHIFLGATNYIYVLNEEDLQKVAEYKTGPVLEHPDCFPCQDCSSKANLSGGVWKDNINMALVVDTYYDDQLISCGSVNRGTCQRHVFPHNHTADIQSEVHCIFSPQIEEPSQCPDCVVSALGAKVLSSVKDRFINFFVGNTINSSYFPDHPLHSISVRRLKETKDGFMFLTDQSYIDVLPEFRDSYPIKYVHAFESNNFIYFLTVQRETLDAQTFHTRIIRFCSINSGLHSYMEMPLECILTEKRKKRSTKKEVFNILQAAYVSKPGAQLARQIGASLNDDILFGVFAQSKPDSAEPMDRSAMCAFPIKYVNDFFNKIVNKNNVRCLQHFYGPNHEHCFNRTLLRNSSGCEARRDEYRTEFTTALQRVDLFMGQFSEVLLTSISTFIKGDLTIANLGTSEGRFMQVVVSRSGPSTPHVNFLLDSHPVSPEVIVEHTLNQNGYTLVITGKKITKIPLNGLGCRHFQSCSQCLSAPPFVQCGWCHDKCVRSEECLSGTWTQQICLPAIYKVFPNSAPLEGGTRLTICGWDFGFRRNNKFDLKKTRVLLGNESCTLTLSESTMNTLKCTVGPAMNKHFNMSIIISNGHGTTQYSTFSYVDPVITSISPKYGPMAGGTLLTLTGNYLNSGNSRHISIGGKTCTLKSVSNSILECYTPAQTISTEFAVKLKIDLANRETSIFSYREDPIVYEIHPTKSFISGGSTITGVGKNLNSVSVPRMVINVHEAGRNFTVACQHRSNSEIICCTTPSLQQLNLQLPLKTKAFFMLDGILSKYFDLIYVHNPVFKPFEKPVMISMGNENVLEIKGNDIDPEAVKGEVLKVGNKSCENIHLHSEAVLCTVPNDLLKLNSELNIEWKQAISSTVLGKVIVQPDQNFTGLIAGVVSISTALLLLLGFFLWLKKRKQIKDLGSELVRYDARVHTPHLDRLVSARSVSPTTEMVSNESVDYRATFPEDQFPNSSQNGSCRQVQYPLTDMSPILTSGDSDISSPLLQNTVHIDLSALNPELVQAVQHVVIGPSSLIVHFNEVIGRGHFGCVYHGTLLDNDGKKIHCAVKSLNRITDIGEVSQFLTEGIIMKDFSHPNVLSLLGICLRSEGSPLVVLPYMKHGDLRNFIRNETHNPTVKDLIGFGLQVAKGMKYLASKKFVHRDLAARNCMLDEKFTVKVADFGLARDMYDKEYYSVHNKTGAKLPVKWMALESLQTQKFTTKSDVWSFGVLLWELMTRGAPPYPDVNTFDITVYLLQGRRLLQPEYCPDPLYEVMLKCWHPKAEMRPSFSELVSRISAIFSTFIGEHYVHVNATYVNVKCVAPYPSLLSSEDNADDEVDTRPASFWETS

Row | SMILES | DC50 (c-MET [1]; Table 2) | DC50 (c-MET [2]) | IC50 (SNU-638; Homo sapiens, SNU-638, 72 h) | IC50 (MKN-45) | DC50 (c-MET [3]) | IC50 (EBC-1; Homo sapiens, EBC-1, 72 h) | other results
1 | Cc1nn(C2CCC(=O)NC2=O)c(=O)c2c(NCC(=O)N3CCC(CN4CCC(COc5cnc(-c6cccc(Cn7nc(-c8cccc(C#N)c8)ccc7=O)c6)nc5)CC4)CC3)cccc12 (stereo not shown) [ICT-0000980] | > 1000 nM | < 100 nM | 100 to 1000 nM | < 100 nM | – | – | –
2 | Cc1nn(C2CCC(=O)NC2=O)c(=O)c2ccc(N3CCN(C(=O)C4CCN(CC(=O)N5CCC(COc6cnc(-c7cccc(Cn8nc(-c9cccc(C#N)c9)ccc8=O)c7)nc6)CC5)CC4)CC3)cc12 (stereo not shown) [ICT-0001218] | < 100 nM | < 100 nM | < 100 nM | < 100 nM | – | – | –
3 | N#Cc1cccc(-c2ccc(=O)n(Cc3cccc(-c4ncc(OCC5CCN(CCCC(=O)N6CCN(c7ccc8c(=O)n(C9CCC(=O)NC9=O)ncc8c7)CC6)CC5)cn4)c3)n2)c1 (stereo not shown) [ICT-0001226] | – | – | – | < 100 nM | – | – | IC50 (Hs746T): < 100 nM
4 | N#Cc1cccc(-c2ccc(=O)n(Cc3cccc(-c4ncc(OCC5CCN(CC(=O)N6CC(N7CCN(c8ccc9c(=O)n(C%10CCC(=O)NC%10=O)ncc9c8)CC7)C6)CC5)cn4)c3)n2)c1 (stereo not shown) [ICT-0001232] | < 100 nM | < 100 nM | – | < 100 nM | < 100 nM | < 100 nM | –
5 | Cc1nn(C2CCC(=O)NC2=O)c(=O)c2ccc(N3CCN(C(=O)C4CN(CC(=O)N5CCC(COc6cnc(-c7cccc(Cn8nc(-c9cccc(C#N)c9)ccc8=O)c7)nc6)CC5)C4)CC3)cc12 (stereo not shown) [ICT-0001257] | – | < 100 nM | – | < 100 nM | – | < 100 nM | –
6 | Cc1nn(C2CCC(=O)NC2=O)c(=O)c2cc(N3CCN(c4ccc(NCC(=O)N5CCC(COc6cnc(-c7cccc(Cn8nc(-c9cccc(C#N)c9)ccc8=O)c7)nc6)CC5)cc4)CC3)ccc12 (stereo not shown) [ICT-0001262, 3-(1-(3-(5-((1-((4-(4-(3-(2,6-dioxopiperidin-3-yl)-1-methyl-4-oxo-3,4-dihydropthalazine-6-yl)piperazine-1-yl)phenyl)glycy)piperidine-4-il)methoxy)pyrimidine-2-yl)benzyl)6-oxo-1,6-dihydropyridazine-3-yl)benzonitrile] | – | < 100 nM | – | < 100 nM | – | < 100 nM | –
7 | N#Cc1cccc(-c2ccc(=O)n(Cc3cccc(-c4ncc(OCC5CCN(CCN6CCN(c7ccc8c(=O)n(C9CCC(=O)NC9=O)ncc8c7)CC6)CC5)cn4)c3)n2)c1 (stereo not shown) [ICT-0001276, 3-(1-{[3-(5-{[1-(2-{4-[2-(2,6-dioxopiperidin-3-yl)-1-oxo-1,2-dihydropetalazine-6-yl]piperazine-1-il}ethyl)piperidine-4-il]methoxy}pyrimidine-2-yl)phenyl]methyl}-6-oxo-1,6-dihydropyridazine-3-yl)benzonitrile] | – | < 100 nM | < 100 nM | < 100 nM | > 1000 nM | – | –
8 | Cc1nn(C2CCC(=O)NC2=O)c(=O)c2cc(N3CCN(CCN4CCC(COc5cnc(-c6cccc(Cn7nc(-c8cccc(C#N)c8)ccc7=O)c6)nc5)CC4)CC3)ccc12 (stereo not shown) [ICT-0001278, 3-(1-{[3-(5-{[1-(2-{4-[3-(2,6-dioxopiperidin-3-yl)-1-methyl-4-oxo-3,4-dihydropthalazine-6-yl]piperazine-1-yl}ethyl)piperidine-4-day]methoxy}pyrimidine-2-yl)phenyl]methyl}6-oxo-1,6-dihydropyridazine-3-yl)benzonitrile] | – | – | – | < 100 nM | > 1000 nM | – | –
9 | Cn1cc(-c2cnc3c(nnn3C[C@@H]3CN(c4ncc(-c5ccc(CN6CCN(CC(=O)N7CCN(c8ccc(NC9CCC(=O)NC9=O)cc8F)CC7)CC6)cc5)cn4)CCO3)n2)cn1 (stereo partly shown) [ICT-0001379] | – | – | – | – | – | – | DC50 (c-MET [1]; Table 1): < 100 nM; IC50 (EBC-1; EBC-1 cells, 72 hours, WST-8, Table 1): < 100 nM; IC50 (SNU-638; SNU-638 cells, 72 hours, WST-8, Table 1): < 100 nM
10 | N#Cc1cccc(-c2ccc(=O)n(Cc3cccc(-c4ncc(OCC5CCN(c6ccc(NC7CCC(=O)NC7=O)cc6F)CC5)cn4)c3)n2)c1 (stereo not shown) [ICT-0001383] | < 100 nM | – | < 100 nM | – | < 100 nM | < 100 nM | –
11 | Cn1cc(-c2cnc3c(nnn3C[C@@H]3CN(c4ncc(-c5ccc(CN6CCN(c7ccc(NC8CCC(=O)NC8=O)cc7F)CC6)cc5)cn4)CCO3)n2)cn1 (stereo partly drawn) [ICT-0001403, 3-((3-fluoro-4-(4-(4-(2-((S)-2-((5-(1-methyl-1H-pyrazole-4-yl)-1H-[1,2,3]triazolo[4,5-b]pyrazine-1-yl)methyl)morpholino)pyrimidine-5-yl)benzyl)piperazine-1-yl)phenyl)amino)piperidine-2,6-dione] | – | – | – | – | – | – | IC50 (EBC-1; Homo sapiens, EBC-1 cells, 72 hours, WST-8, Table 1): < 100 nM; IC50 (SNU-638; Homo sapiens, SNU-638 cells, 72 hours, WST-8, Table 1): < 100 nM
12 | N#Cc1cccc(-c2ccc(=O)n(Cc3cccc(-c4ncc(OCC5CCN(CC6CN(c7ccc(NC8CCC(=O)NC8=O)cc7F)C6)CC5)cn4)c3)n2)c1 (stereo not shown) [ICT-0001425] | < 100 nM | – | – | – | < 100 nM | – | IC50 (EBC-1; EBC-1 cells, 72 hours, WST-8, Table 2): < 100 nM; IC50 (SNU-638; SNU-638 cells, 72 hours, WST-8, Table 2): < 100 nM
13 | N#Cc1cccc(-c2ccc(=O)n(Cc3cccc(-c4ncc(OCC5CCN(CCN6CCN(c7ccc(NC8CCC(=O)NC8=O)cc7F)CC6)CC5)cn4)c3)n2)c1 (stereo not shown) [ICT-0001433, 3-(1-(3-(5-((1-(1-(2-(4-((2,6-dioxopiperidine-3-yl)amino)-2-fluorophenyl)piperazine-1-il)ethyl)piperidine-4-il)methoxy)pyrimidine-2-yl)benzyl)6-oxo-1,6-dihydropyridazine-3-yl)benzonitrile] | < 100 nM | – | < 100 nM | – | < 100 nM | < 100 nM | –
14 | N#Cc1cccc(-c2ccc(=O)n(Cc3cccc(-c4ncc(-c5cccc(CN6CCN(c7ccc(NC8CCC(=O)NC8=O)cc7F)CC6)c5)cn4)c3)n2)c1 (stereo not shown) [ICT-0001434] | > 1000 nM | – | < 100 nM | – | < 100 nM | < 100 nM | –
15 | N#Cc1cccc(-c2ccc(=O)n(Cc3cccc(-c4ncc(OCC5CCN(CC(=O)N6CCC(CN7CCN(c8ccc(NC9CCC(=O)NC9=O)cc8F)CC7)CC6)CC5)cn4)c3)n2)c1 (stereo not shown) [ICT-0001447, 3-(1-{[3-(5-{[1-(2-{4-[(4-{4-[(2,6-dioxopiperidin-3-yl)amino]-2-fluorophenyl}piperazine-1-yl)methyl]piperidine-1-yl}-2-oxoethyl)piperidine-4-yl]methoxy}pyrimidine-2-yl)phenyl]methyl}-6-oxo-1,6-dihydropyridazine-3-yl)benzonitrile] | 100 to 1000 nM | – | – | – | < 100 nM | – | IC50 (EBC-1; [4]): < 100 nM; IC50 (SNU-638; [5]): < 100 nM
16 | N#Cc1cccc(-c2ccc(=O)n(Cc3cccc(-c4ncc(-c5cccc(CN6CCN(c7ccc(C8CCC(=O)NC8=O)cn7)CC6)c5)cn4)c3)n2)c1 (stereo not shown) [ICT-0001449] | > 1000 nM | – | < 100 nM | – | < 100 nM | < 100 nM | –
17 | N#Cc1cccc(-c2ccc(=O)n(Cc3cccc(-c4ncc(-c5cccc(CN6CCC(CN7CCN(c8ccc(NC9CCC(=O)NC9=O)cc8F)CC7)CC6)c5)cn4)c3)n2)c1 (stereo not shown) [ICT-0001450] | – | – | < 100 nM | – | < 100 nM | < 100 nM | –
18 | N#Cc1cccc(-c2ccc(=O)n(Cc3cccc(-c4ncc(OCC5CCN(CC(=O)N6CCN(CC7CCN(c8ccc(NC9CCC(=O)NC9=O)cc8F)CC7)CC6)CC5)cn4)c3)n2)c1 (stereo not shown) [ICT-0001468, 3-(1-{[3-(5-{[1-(2-{4-[(1-{4-[(2,6-dioxopiperidin-3-yl)amino]-2-fluorophenyl}piperidine-4-yl)methyl]piperazine-1-yl}-2-oxoethyl)piperidine-4-yl]methoxy}pyrimidine-2-yl)phenyl]methyl}-6-oxo-1,6-dihydropyridazine-3-yl)benzonitrile] | 100 to 1000 nM | – | – | – | < 100 nM | – | IC50 (EBC-1; [4]): < 100 nM; IC50 (SNU-638; [5]): < 100 nM
19 | N#Cc1cccc(-c2ccc(=O)n(Cc3cccc(-c4ncc(OCC5CCN(C(=O)CN6CCN(c7ccc(NC8CCC(=O)NC8=O)cc7F)CC6)CC5)cn4)c3)n2)c1 (stereo not shown) [ICT-0001494] | < 100 nM | – | < 100 nM | – | < 100 nM | < 100 nM | –
